Measured values reported in PubChem BioAssay (NCI).
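Where inhibition never reached the appropriate level, the endpoint shown equals the highest concentration tested. Otherwise, values were interpolated linearly from a five-concentration, 48-hour dose response in 96-well plates. TGI denotes the concentration required for complete inhibition of growth.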

Key:
Experiment in all cases: growth of human tumour cells (NCI), 48 h
[1] = tested on: IGROV1 ovarian
[2] = tested on: A498 renal
[3] = tested on: OVCAR-3 ovarian
[4] = tested on: SNB-19 CNS
[5] = tested on: SNB-75 CNS
[6] = tested on: T-47D breast
[7] = tested on: UO-31 renal
[8] = tested on: EKVX NSCLC
[9] = tested on: SK-OV-3 ovarian
[10] = tested on: HOP-62 NSCLC
[11] = tested on: HL-60(TB) leukemia
[12] = tested on: HS 578T breast
[13] = tested on: HCT-116 colon
[14] = tested on: TK-10 renal
[15] = tested on: OVCAR-8 ovarian
[16] = tested on: MDA-MB-435
[17] = tested on: RXF 393 renal
[18] = tested on: PC-3 prostate
[19] = tested on: NCI-H522 lung
[20] = tested on: LOX IMVI melanoma
[21] = tested on: MCF7 breast
[22] = tested on: COLO 205 colon
[23] = tested on: UACC-257 melanoma
[24] = tested on: SN12C renal
[25] = tested on: A549 NSCLC
[26] = tested on: DU-145 prostate
[27] = tested on: RPMI-8226 leukemia
[28] = tested on: SK-MEL-5 melanoma
[29] = tested on: SR leukemia
[30] = tested on: CCRF-CEM leukemia
[31] = tested on: CAKI-1 renal
[32] = tested on: NCI-H226 lung
[33] = tested on: U251 CNS
[34] = tested on: MOLT-4 leukemia
[35] = tested on: MALME-3M melanoma
[36] = tested on: SK-MEL-28 melanoma
[37] = tested on: SF-268 CNS
[38] = tested on: OVCAR-5 ovarian
[39] = tested on: MDA-N
[40] = tested on: MDA-MB-231 breast
[41] = tested on: M14 melanoma
[42] = tested on: SK-MEL-2 melanoma
[43] = tested on: HT29 colon
[44] = tested on: KM12 colon
[45] = tested on: OVCAR-4 ovarian
[46] = tested on: 786-0 renal
[47] = tested on: K-562 leukemia
[48] = tested on: HOP-92 NSCLC
[49] = tested on: SF-295 CNS
[50] = tested on: ACHN renal
[51] = tested on: SW-620 colon
[52] = tested on: NCI-H460 lung
[53] = tested on: NCI-H23 lung
[54] = tested on: HCT-15 colon
[55] = tested on: SF-539 CNS
[56] = tested on: NCI/ADR-RES ovarian
[57] = tested on: UACC-62 melanoma
[58] = tested on: HCC-2998 colon

For `c1ccc(C[N+]23C(CC[C@H]2c2ccccc2)CC[C@H]3c2ccccc2)cc1` (stereo partly drawn), the TGI [1] was greater than 100 µM, the TGI [2] was greater than 100 µM and the TGI [3] was 90 µM. For the same compound, the TGI [4] was greater than 100 µM, the TGI [5] was 75 µM and the TGI [6] was greater than 100 µM. It also gave a TGI [7] greater than 100 µM, a TGI [8] greater than 100 µM and a TGI [9] greater than 100 µM. For the same compound, the TGI [10] was greater than 100 µM, the TGI [11] was 57.4 µM and the TGI [12] was greater than 100 µM. The TGI [13] was greater than 100 µM, the TGI [14] was greater than 100 µM and the TGI [15] was greater than 100 µM. The TGI [16] was 54.8 µM, the TGI [17] was 57.2 µM and the TGI [18] was greater than 100 µM. For the same compound, the TGI [19] was greater than 100 µM, the TGI [20] was greater than 100 µM and the TGI [21] was greater than 100 µM. It also gave a TGI [22] of 31.2 µM, a TGI [23] of 90.3 µM and a TGI [24] greater than 100 µM. It also gave a TGI [25] greater than 100 µM, a TGI [26] greater than 100 µM and a TGI [27] of 26.4 µM. For the same compound, the TGI [28] was 19.1 µM, the TGI [29] was greater than 100 µM and the TGI [30] was greater than 100 µM. For the same compound, the TGI [31] was greater than 100 µM, the TGI [32] was 87.8 µM and the TGI [33] was greater than 100 µM. For the same compound, the TGI [34] was greater than 100 µM, the TGI [35] was greater than 100 µM and the TGI [36] was greater than 100 µM. The TGI [37] was greater than 100 µM, the TGI [38] was greater than 100 µM and the TGI [39] was 98.9 µM. The TGI [40] was greater than 100 µM, the TGI [41] was 93 µM and the TGI [42] was greater than 100 µM. For the same compound, the TGI [43] was greater than 100 µM, the TGI [44] was 78 µM and the TGI [45] was greater than 100 µM. It also gave a TGI [46] greater than 100 µM, a TGI [47] greater than 100 µM and a TGI [48] of 52.3 µM. It also gave a TGI [49] greater than 100 µM, a TGI [50] greater than 100 µM and a TGI [51] greater than 100 µM.

Work on `O=C1NC(=O)C23C(=O)NC(=O)C12C1C=CC3CC1` (stereo not drawn) yielded a TGI [1] greater than 10 µM, a TGI [2] greater than 10 µM and a TGI [3] greater than 10 µM. The TGI [4] was greater than 10 µM, the TGI [5] was greater than 10 µM and the TGI [52] was greater than 10 µM. The TGI [6] was greater than 10 µM, the TGI [7] was greater than 10 µM and the TGI [8] was greater than 10 µM. The TGI [9] was greater than 10 µM, the TGI [10] was greater than 10 µM and the TGI [53] was greater than 10 µM. It also gave a TGI [11] greater than 10 µM, a TGI [12] greater than 10 µM and a TGI [13] greater than 10 µM. For the same compound, the TGI [54] was greater than 10 µM, the TGI [14] was greater than 10 µM and the TGI [15] was greater than 10 µM. It also gave a TGI [16] greater than 10 µM, a TGI [17] greater than 10 µM and a TGI [18] greater than 10 µM. The TGI [19] was greater than 10 µM, the TGI [20] was greater than 10 µM and the TGI [21] was greater than 10 µM. For the same compound, the TGI [22] was greater than 10 µM, the TGI [23] was greater than 10 µM and the TGI [24] was greater than 10 µM. The TGI [25] was greater than 10 µM, the TGI [55] was greater than 10 µM and the TGI [26] was greater than 10 µM. For the same compound, the TGI [27] was greater than 10 µM, the TGI [28] was greater than 10 µM and the TGI [29] was greater than 10 µM. It also gave a TGI [30] greater than 10 µM, a TGI [31] greater than 10 µM and a TGI [32] greater than 10 µM. It also gave a TGI [33] greater than 10 µM, a TGI [34] greater than 10 µM and a TGI [35] greater than 10 µM. It also gave a TGI [36] greater than 10 µM, a TGI [37] greater than 10 µM and a TGI [39] greater than 10 µM. The TGI [40] was greater than 10 µM, the TGI [41] was greater than 10 µM and the TGI [56] was greater than 10 µM. The TGI [42] was greater than 10 µM, the TGI [43] was greater than 10 µM and the TGI [44] was greater than 10 µM. The TGI [45] was greater than 10 µM, the TGI [46] was greater than 10 µM and the TGI [57] was greater than 10 µM. The TGI [47] was greater than 10 µM, the TGI [48] was greater than 10 µM and the TGI [49] was greater than 10 µM. It also gave a TGI [50] greater than 10 µM, a TGI [58] greater than 10 µM and a TGI [51] greater than 10 µM.
